# From patent publication US9115127B2 (AMGEN INC., priority 2010, dated 2015)
# Counter-ions that a name gives are not always drawn.
# Target: T1, wild-type human ALK (cytoplasmic domain, amino acids 1058-1620, N-terminal GST fusion) (Homo sapiens, UniProt Q9UM73)
# T1 construct: The cytoplasmic domain (amino acids 1058-1620) of wild-type human ALK; GST (N); made in house; host or cells: SF9 insect cells
# Test: ALK Inhibition in Enzyme Assay (Lance TR-FRET kinase assay)
# Format: biochemical
# Outline: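 TR-FRET read-out (Eu-W1024 PT66 anti-phosphotyrosine plus streptavidin-allophycocyanin, 320 nm excitation) quantified biotinylated peptide phosphorylation by the purified kinase. Reaction ran 90 minutes at room temperature before quenching with 20 mM EDTA in Tris pH 7.5 buffer with NaCl, BSA and Tween-20.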
# T1 sequence (Q9UM73 1058-1620): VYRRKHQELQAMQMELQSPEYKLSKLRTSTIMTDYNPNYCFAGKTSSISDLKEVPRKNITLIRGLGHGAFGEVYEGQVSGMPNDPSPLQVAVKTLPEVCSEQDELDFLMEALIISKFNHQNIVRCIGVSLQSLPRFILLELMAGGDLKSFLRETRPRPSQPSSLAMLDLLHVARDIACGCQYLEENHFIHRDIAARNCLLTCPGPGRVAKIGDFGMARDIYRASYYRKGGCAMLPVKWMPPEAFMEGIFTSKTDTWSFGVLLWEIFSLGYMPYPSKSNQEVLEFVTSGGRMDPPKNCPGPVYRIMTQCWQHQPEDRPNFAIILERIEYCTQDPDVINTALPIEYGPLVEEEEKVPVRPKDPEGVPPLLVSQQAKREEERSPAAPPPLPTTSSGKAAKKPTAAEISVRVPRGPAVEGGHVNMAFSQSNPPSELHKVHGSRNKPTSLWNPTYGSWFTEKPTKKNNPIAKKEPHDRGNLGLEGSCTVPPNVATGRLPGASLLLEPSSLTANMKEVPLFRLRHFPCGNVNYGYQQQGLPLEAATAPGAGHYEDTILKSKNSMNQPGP
row,Structure (SMILES),IC50
1,"CC(C)NC(=O)[C@H]1CC[C@@H](n2/c(=N/C(=O)c3ccc(F)cc3)[nH]c3cnc(O)cc32)CC1 [Example 162, (E)-4-Fluoro-N-(6-hydroxy-1-(cis-4-(isopropylcarbamoyl)cyclohexyl)-1H-imidazo[4,5-c]pyridin-2(3H)-ylidene)benzamide]",< 0.05 µM
2,"CC(C)NC(=O)[C@H]1CC[C@@H](n2/c(=N/C(=O)c3ccc(F)cc3)[nH]c3cnc(NCCN4CCOCC4)cc32)CC1 [Example 163, (E)-4-Fluoro-N-(1-(cis-4-(isopropylcarbamoyl)cyclohexyl)-6-(2-morpholinoethylamino)-1H-imidazo[4,5-c]pyridin-2(3H)-ylidene)benzamide]",< 0.05 µM
3,"CC(C)NC(=O)[C@H]1CC[C@@H](n2/c(=N/C(=O)c3ccc(F)cc3)[nH]c3cnc(OCCn4cncn4)cc32)CC1 [Example 164, (E)-N-(6-(2-(1H-1,2,4-Triazol-1-yl)ethoxy)-1-(cis-4-(isopropylcarbamoyl)cyclohexyl)-1H-imidazo[4,5-c]pyridin-2(3H)-ylidene)-4-fluorobenzamide]",< 0.05 µM
4,"CC(C)NC(=O)[C@H]1CC[C@@H](n2/c(=N/C(=O)c3ccc(F)cc3)[nH]c3cnc(OCCCN4CCOCC4)cc32)CC1 [Example 165, (E)-4-Fluoro-N-(1-(cis-4-(isopropylcarbamoyl)cyclohexyl)-6-(3-morpholinopropoxy)-1H-imidazo[4,5-c]pyridin-2(3H)-ylidene)benzamide]",< 0.05 µM
5,"CC(C)NC(=O)[C@H]1CC[C@@H](n2/c(=N/C(=O)c3ccc(F)cc3)[nH]c3cc(F)c(OCCN4CCOCC4)cc32)CC1 [Example 166, (E)-4-Fluoro-N-(5-fluoro-1-(cis-4-(isopropylcarbamoyl)cyclohexyl)-6-(2-morpholinoethoxy)-1H-benzo[d]imidazol-2(3H)-ylidene)benzamide]",< 0.05 µM
6,"CC(C)NC(=O)[C@H]1CC[C@@H](n2/c(=N/C(=O)c3ccc(F)cc3)[nH]c3cnc(OC4CCN(CC(=O)OC(C)(C)C)CC4)cc32)CC1 [Example 167, tert-Butyl 2-(4-((E)-2-(4-fluorobenzoylimino)-1-(cis-4-(isopropylcarbamoyl)cyclohexyl)-2,3-dihydro-1H-imidazo[4,5-c]pyridin-6-yloxy)piperidin-1-yl)acetate]",< 0.05 µM
7,"CC(C)NC(=O)[C@H]1CC[C@@H](n2/c(=N/C(=O)c3ccc(F)cc3)[nH]c3cnc(OC4CCN(CC(=O)O)CC4)cc32)CC1 [Example 168, 2-(4-((E)-2-(4-Fluorobenzoylimino)-1-(cis-4-(isopropylcarbamoyl)cyclohexyl)-2,3-dihydro-1H-imidazo[4,5-c]pyridin-6-yloxy)piperidin-1-yl)acetic acid hydrochloride]",< 0.05 µM
8,"CC(C)NC(=O)[C@H]1CC[C@@H](n2/c(=N/C(=O)c3ccc(F)cc3)[nH]c3cnc(OC4CCN(C)CC4)cc32)CC1 [Example 169, (E)-4-Fluoro-N-(1-(cis-4-(isopropylcarbamoyl)cyclohexyl)-6-(1-methylpiperidin-4-yloxy)-1H-imidazo[4,5-c]pyridin-2(3H)-ylidene)benzamide]",< 0.05 µM
9,"CC(C)NC(=O)[C@H]1CC[C@@H](n2/c(=N/C(=O)c3ccc(F)cc3)[nH]c3ccc(CO)cc32)CC1 [Example 170, (E)-4-Fluoro-N-(6-(hydroxymethyl)-1-(cis-4-(isopropylcarbamoyl)cyclohexyl)-1H-benzo[d]imidazol-2(3H)-ylidene)benzamide]",< 0.05 µM
10,"CC(C)NC(=O)[C@H]1CC[C@@H](n2/c(=N/C(=O)c3ccc(F)cc3)[nH]c3ccc(CN4CCN(S(C)(=O)=O)CC4)cc32)CC1 [Example 172, (E)-4-Fluoro-N-(1-(cis-4-(isopropylcarbamoyl)cyclohexyl)-6-((4-(methylsulfonyl)piperazin-1-yl)methyl)-1H-benzo[d]imidazol-2(3H)-ylidene)benzamide]",< 0.05 µM
11,"CC(C)NC(=O)[C@H]1CC[C@@H](n2/c(=N/C(=O)c3ccc(F)cc3)[nH]c3ccc(CN4CCN(CCO)CC4)cc32)CC1 [Example 173, (E)-4-Fluoro-N-(6-((4-(2-hydroxyethyl)piperazin-1-yl)methyl)-1-(cis-4-(isopropylcarbamoyl)cyclohexyl)-1H-benzo[d]imidazol-2(3H)-ylidene)benzamide]",< 0.05 µM
12,"CC(C)NC(=O)[C@H]1CC[C@@H](n2/c(=N/C(=O)c3ccc(F)cc3)[nH]c3ccc(CN4CCCC(C(N)=O)C4)cc32)CC1 (stereo partly drawn) [Example 180, 1-(((E)-2-(4-Fluorobenzoylimino)-3-(cis-4-(isopropylcarbamoyl)-cyclohexyl)-2,3-dihydro-1H-benzo[d]imidazol-5-yl)methyl)piperidine-3-carboxamide]",< 0.05 µM
13,"CC(C)NC(=O)[C@H]1CC[C@@H](n2/c(=N/C(=O)c3ccc(F)cc3)[nH]c3ccc(CN4CCC(S(=O)(=O)O)CC4)cc32)CC1 [Example 181, 1-(((E)-2-(4-Fluorobenzoylimino)-3-(cis-4-(isopropylcarbamoyl)-cyclohexyl)-2,3-dihydro-1H-benzo[d]imidazol-5-yl)methyl)piperidine-4-sulfonic acid]",< 0.05 µM
14,"CC(C)NC(=O)[C@H]1CC[C@@H](n2/c(=N/C(=O)c3ccc(F)cc3)[nH]c3ccc(CN4CCC(C(=O)N5CCOCC5)CC4)cc32)CC1 [Example 182, (E)-4-Fluoro-N-(1-(cis-4-(isopropylcarbamoyl)cyclohexyl)-6-((4-(morpholine-4-carbonyl)piperidin-1-yl)methyl)-1H-benzo[d]imidazol-2(3H)-ylidene)benzamide]",< 0.05 µM
15,"CC(C)NC(=O)[C@H]1CC[C@@H](n2/c(=N/C(=O)c3ccc(F)cc3)[nH]c3ccc(CN4CCC(C)(O)CC4)cc32)CC1 [Example 183, (E)-4-Fluoro-N-(6-((4-hydroxy-4-methylpiperidin-1-yl)methyl)-1-(cis-4-(isopropylcarbamoyl)cyclohexyl)-1H-benzo[d]imidazol-2(3H)-ylidene)benzamide]",< 0.05 µM
16,"CC(C)NC(=O)[C@H]1CC[C@@H](n2/c(=N/C(=O)c3ccc(F)cc3)[nH]c3ccc(CN4CCN(CC(C)(C)O)CC4)cc32)CC1 [Example 185, (E)-4-Fluoro-N-(6-((4-(2-hydroxy-2-methylpropyl)piperazin-1-yl)methyl)-1-(cis-4-(isopropylcarbamoyl)cyclohexyl)-1H-benzo[d]imidazol-2(3H)-ylidene)benzamide]",< 0.05 µM
17,"CC(C)NC(=O)[C@H]1CC[C@@H](n2/c(=N/C(=O)c3ccc(F)cc3)[nH]c3ccc(CN4CCC(C(O)C(F)(F)F)CC4)cc32)CC1 (stereo partly drawn) [Example 186, (E)-4-Fluoro-N-(1-(cis-4-(isopropylcarbamoyl)-cyclohexyl)-6-((4-(2,2,2-trifluoro-1-hydroxyethyl)piperidin-1-yl)methyl)-1H-benzo[d]imidazol-2(3H)-ylidene)benzamide]",< 0.05 µM
18,"CC[N+](CC)(CC)Cc1ccc2[nH]/c(=N\C(=O)c3ccc(F)cc3)n([C@H]3CC[C@@H](C(=O)NC(C)C)CC3)c2c1 [Example 187, N,N-Diethyl-N-(((E)-2-(4-fluorobenzoylimino)-3-(cis-4-(isopropylcarbamoyl)cyclohexyl)-2,3-dihydro-1H-benzo[d]imidazol-5-yl)methyl)ethanaminium chloride]",< 0.05 µM
19,"CC(C)NC(=O)[C@H]1CC[C@@H](n2/c(=N/C(=O)c3ccc(F)cc3)[nH]c3ccc(CN4CCC(CNCC(F)(F)F)CC4)cc32)CC1 [Example 190, (E)-4-Fluoro-N-(1-(cis-4-(isopropylcarbamoyl)cyclohexyl)-6-((4-((2,2,2-trifluoroethylamino)methyl)piperidin-1-yl)methyl)-1H-benzo[d]imidazol-2(3H)-ylidene)benzamide]",< 0.05 µM
20,"CC(C)NC(=O)[C@H]1CC[C@@H](n2/c(=N/C(=O)c3ccc(F)cc3)[nH]c3ccc(CN4CCC(F)(F)CC4)cc32)CC1 [Example 191, (E)-N-(6-((4,4-Difluoropiperidin-1-yl)methyl)-1-(cis-4-(isopropylcarbamoyl)cyclohexyl)-1H-benzo[d]imidazol-2(3H)-ylidene)-4-fluorobenzamide]",< 0.05 µM
21,"COCc1ccc2[nH]/c(=N\C(=O)c3ccc(F)cc3)n([C@H]3CC[C@@H](C(=O)NC(C)C)CC3)c2c1 [Example 192, (E)-4-Fluoro-N-(1-(cis-4-(isopropylcarbamoyl)cyclohexyl)-6-(methoxymethyl)-1H-benzo[d]imidazol-2(3H)-ylidene)benzamide]",< 0.05 µM
22,"CC(C)NC(=O)[C@H]1CC[C@@H](n2/c(=N/C(=O)c3ccc(F)cc3)[nH]c3ccc(Cn4cnnc4)cc32)CC1 [Example 195, (E)-N-(6-((4H-1,2,4-Triazol-4-yl)methyl)-1-(cis-4-(isopropylcarbamoyl)cyclohexyl)-1H-benzo[d]imidazol-2(3H)-ylidene)-4-fluorobenzamide]",< 0.05 µM
23,"CC(C)NC(=O)[C@H]1CC[C@@H](n2/c(=N/C(=O)c3ccc(F)cc3)[nH]c3ccc(CN4CCC(F)(F)C4)cc32)CC1 [Example 196, (E)-N-(6-((3,3-Difluoropyrrolidin-1-yl)methyl)-1-(cis-4-(isopropylcarbamoyl)cyclohexyl)-1H-benzo[d]imidazol-2(3H)-ylidene)-4-fluorobenzamide]",< 0.05 µM
24,"CC(C)NC(=O)[C@H]1CC[C@@H](n2/c(=N/C(=O)c3ccc(F)cc3)[nH]c3ccc(Cn4cccn4)cc32)CC1 [Example 197, (E)-N-(6-((1H-Pyrazol-1-yl)methyl)-1-(cis-4-(isopropylcarbamoyl)cyclohexyl)-1H-benzo[d]imidazol-2(3H)-ylidene)-4-fluorobenzamide]",< 0.05 µM
25,"COCCOCc1ccc2[nH]/c(=N\C(=O)c3ccc(F)cc3)n([C@H]3CC[C@@H](C(=O)NC(C)C)CC3)c2c1 [Example 198, (E)-4-Fluoro-N-(1-(cis-4-(isopropylcarbamoyl)cyclohexyl)-6-((2-methoxyethoxy)methyl)-1H-benzo[d]imidazol-2(3H)-ylidene)benzamide]",< 0.05 µM
